Assay results: US11014915B2, “Selective estrogen receptor degrader” (SUN PHARMA ADVANCED RESEARCH COMPANY LIMITED, priority 2019, dated 2021)

How the values were obtained:
[1] = target: T1, ER-α in MCF-7 cells harboring mutant ER (WT/Y537S) (Homo sapiens, UniProt P03372, Y537S); assay: ER-α degradation (SERD) assay, MCF-7 Y537S; type: cell-based; conditions: for DC50: MCF-7 Y537S, 4 days, read-out: ER-α degradation assay Y537S IC50
T1 construct: MCF-7 cells harboring mutant ER (WT/D538G and WT/Y537S); endogenous in cells; host or cells: MCF-7 Y537S (WT/Y537S)
T1 sequence (P03372 1-595 Y537S): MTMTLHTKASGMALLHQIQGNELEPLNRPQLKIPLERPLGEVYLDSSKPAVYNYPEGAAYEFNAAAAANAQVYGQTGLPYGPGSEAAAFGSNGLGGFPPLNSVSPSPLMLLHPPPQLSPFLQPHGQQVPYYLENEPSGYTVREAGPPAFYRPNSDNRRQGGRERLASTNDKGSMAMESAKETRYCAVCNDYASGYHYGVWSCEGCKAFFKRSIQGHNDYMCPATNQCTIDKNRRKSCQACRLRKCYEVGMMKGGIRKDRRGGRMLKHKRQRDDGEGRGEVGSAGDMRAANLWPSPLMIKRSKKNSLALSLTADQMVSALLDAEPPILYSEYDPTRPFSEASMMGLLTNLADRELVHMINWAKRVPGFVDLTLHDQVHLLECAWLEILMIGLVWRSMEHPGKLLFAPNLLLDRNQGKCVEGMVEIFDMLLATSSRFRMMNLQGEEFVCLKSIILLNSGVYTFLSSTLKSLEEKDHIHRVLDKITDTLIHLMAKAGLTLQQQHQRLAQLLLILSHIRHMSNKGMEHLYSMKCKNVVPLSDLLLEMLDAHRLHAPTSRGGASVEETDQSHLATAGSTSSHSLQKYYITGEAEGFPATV
Description: Selective Estrogen Receptor Degradation (SERD) Assay:
The SERD activity for the test compounds was evaluated in MCF-7 cells harboring ER wild type, and MCF-7 cells harboring mutant ER (WT/D538G and WT/Y537S). Briefly, cells were plated in phenol red free RPMI1640 medium supplemented with 5% charcoal stripped fetal bovine serum. The seeding density was 40000 cells/well for MCF-7 WT and MCF-7 D538G and 50000 cells/well MCF-7 Y537S in a 48-well plate. Following overnight incubation, the cells were treated with varying concentrations of test compounds (final concentration: 1000 nM to 0.01 nM, 0.1% DMSO) for 4 days. The cells were lysed using PBS supplemented with 1 mM EDTA, 0.5% Triton X-100, 5 mM NaF, 6 M urea, and 1× Protease inhibitor cocktail. The lysate was analyzed for ER alpha protein using western blot. For the western blot, the cell lysate (12.5-40 μg total protein) was resolved on a 10% SDS PAGE and transferred onto a PVDF membrane. The blots were blocked using 5% skim milk powder in 0.1% PBS-T for 1 hour at room temperature, followed by co-incubation with rabbit anti-human β-actin antibody and rabbit anti-human ERα antibody for 2 hours at room temperature. The blots were subsequently probed with anti-rabbit IgG-HRP conjugate as secondary antibody for 1 hour at room temperature. The blots were developed by using West Pico Super Signal Chemiluminescence substrate and the bands were processed for densitometry analysis using Image Lab software (BioRad version 6.0.0). ERα band intensity was normalized to that housekeeping protein for respective samples. The % ER remaining was calculated by normalizing against the vehicle control (as 100%).

[2] = test system: MCF-7 cells harboring ER wild type (Wt); assay: MCF-7 cell growth inhibition assay, wild type; type: cell-based, human; conditions: for IC50: Homo sapiens, MCF7, 168 h, MCF-7 Wt, seven-day incubation
Description: (§1) MCF-7 Cell Growth Inhibition Assay:
(§2) The anti-proliferative activity of the test compounds were evaluated in a growth inhibition assay. Briefly, MCF-7 cells harboring ER wild type (Wt), and MCF-7 cells harboring mutant ER (WT/D538G and WT/Y537S) were seeded at a density of 1000 cells/well in 96-well plate in phenol red free RPMI1640 medium supplemented with 10% charcoal stripped fetal bovine serum. The cells were incubated overnight at 37° C. and 5% CO2 followed by the addition of varying concentrations of the test compounds in DMSO. Final concentration of DMSO in the well was 0.5%. Following a seven-day incubation of cells with the test compounds, cell viability was assessed using a Prestoblue™ reagent. The percent inhibition of cell proliferation was calculated by normalizing the cell viability using a vehicle control as 0% inhibition of proliferation.

[3] = test system: MCF-7 cells harboring mutant ER (WT/Y537S); assay: MCF-7 cell growth inhibition assay, Y537S; type: cell-based; conditions: Homo sapiens, MCF7, 168 h; MCF-7 Y537S, seven-day incubation
Description: as §1, §2

CC1=C(c2cc(F)cc(F)c2)[C@H](c2ccc(/C=C/CN3CC(CF)C3)cc2)Oc2cc(O)ccc21 [Formula Ia, (2S)-3-(3,5-difluorophenyl)-2-[4-[(E)-3-[3-(fluoromethyl)azetidin-1-yl]prop-1-enyl]phenyl]-4-methyl-2H-chromen-7-ol]
DC50 [1]: 19.6 nM
IC50 [2]: 0.3 nM
Potency of Formula Ia relative to Formula Ib in MCF-7 growth inhibition assay ([2]; wild type): about 233 times
IC50 [3]: 6 nM

CC1=C(c2cc(F)cc(F)c2)[C@@H](c2ccc(/C=C/CN3CC(CF)C3)cc2)Oc2cc(O)ccc21 [Formula Ib, (2R)-3-(3,5-difluorophenyl)-2-[4-[(E)-3-[3-(fluoromethyl)azetidin-1-yl]prop-1-enyl]phenyl]-4-methyl-2H-chromen-7-ol]
DC50 [1]: > 1000 nM
ER-α degradation in mutated cell line (in words) ([1]; Y537S): no ER-α degradation
IC50 [2]: 69.9 nM
IC50 [3]: 1000 nM
